Structures can show the parent of a compound that is named as a salt.

One series concerns cynomolgus monkeys. Put plainly: Test for Measurement of Intraocular Pressure-Reducing Activity. Format: in vivo. The note with it: male cynomolgus monkeys, 0.1% test compound solution instilled into one eye, measured at 2, 4 and 6 hours after instillation, versus vehicle control. From the text: Further, in order to verify the application of the present invention compound to a specific disease associated with Rho kinase, the intraocular pressure-reducing activity of the present invention compound was also studied. The details of the study will be illustrated in the “section of Pharmacological Test (Test for Measurement of Intraocular Pressure-Reducing Activity)” in the Examples which will be mentioned later.
In order to study the usefulness of the present invention compound as a therapeutic agent for glaucoma, an intraocular pressure-reducing effect in the case where the present invention compound was administered to cynomolgus monkeys (sex: male; one group consisting of 4 to 5 monkeys) was evaluated and studied. As a test compound, Example compound 2 (hereinafter referred to as the test compound) was used. […]
2) The intraocular pressure was measured immediately before administration of the test compound solution, which was defined as the initial intraocular pressure. […]
4) At 2, 4 and 6 hours after instillation of the test compound solution, one drop of a 0.4% oxybuprocaine hydrochloride eye drop was instilled into both eyes to achieve local anesthesia and then the intraocular pressure was measured. Measurement of the intraocular pressure for each time was carried out three times and a mean value thereof was calculated. […]

A further series concerns the target T1, activated ROCK-II (Rattus norvegicus, UniProt Q62868).
T1 construct: purchased Upstate Biotechnology 14-338
As to the kind of experiment: Test for Evaluation of Rho Kinase Inhibitory Activity. Format: biochemical. The note with it: Ki=IC50/(1+S/Km); [γ-32P]ATP, S6 kinase substrate peptide, 30° C. for 15 minutes. How it is done: In order to find the usefulness of the present invention compound, a Rho kinase inhibitory activity of the present invention compound was evaluated and studied. The details of the evaluation and study will be illustrated in the “section of Pharmacological Test (Test for Evaluation of Rho Kinase Inhibitory Activity)” in the Examples which will be mentioned later. The evaluation and study of the Rho kinase inhibitory activity of the present invention compound were carried out in accordance with the method described in J. Biol. Chem., 274, 32418 (1999) and the method described in the instruction manual for use attached to the commercially available activated ROCK-II [Upstate Biotechnology, Catalog No. 14-338 (5 units/50 μl)].
In order to study the usefulness of the present invention compound as a Rho kinase inhibitor, in accordance with the method described in J. Biol. Chem., 274, 32418 (1999) and the method described in the instruction manual for use attached to the commercially available activated ROCK-II [Upstate Biotechnology, Catalog No. 14-338 (5 units/50 μl)], the Rho kinase inhibitory activity of the present invention compound was evaluated and studied. As a test compound, Example compound 2 was used. […]
7) The filter paper is dipped in ethanol and then dried. Thereafter, the amount of phosphorylated substrate is measured using a liquid scintillation counter. […]

T1 sequence (Q62868 11-552 limits assumed): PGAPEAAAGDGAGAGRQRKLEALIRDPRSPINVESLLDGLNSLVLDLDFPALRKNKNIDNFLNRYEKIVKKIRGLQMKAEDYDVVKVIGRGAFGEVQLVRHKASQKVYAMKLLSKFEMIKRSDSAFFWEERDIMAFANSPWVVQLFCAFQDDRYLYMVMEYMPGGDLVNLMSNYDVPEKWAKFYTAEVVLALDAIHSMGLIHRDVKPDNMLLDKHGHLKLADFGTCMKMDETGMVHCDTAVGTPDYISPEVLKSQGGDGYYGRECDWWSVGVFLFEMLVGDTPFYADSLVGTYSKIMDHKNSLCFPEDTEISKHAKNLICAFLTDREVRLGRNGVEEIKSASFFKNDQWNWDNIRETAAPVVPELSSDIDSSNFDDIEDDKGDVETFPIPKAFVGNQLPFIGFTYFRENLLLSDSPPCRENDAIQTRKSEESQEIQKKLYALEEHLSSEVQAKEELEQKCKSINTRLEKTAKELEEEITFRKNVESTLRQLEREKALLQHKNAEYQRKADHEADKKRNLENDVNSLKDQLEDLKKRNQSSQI

For orientation: melting point means the temperature of the solid-liquid transition. In turn, `CC(C)(C)OC(=O)NC1(c2ccc(-c3ccc4c(cnn4C4CCCCO4)c3C3CC3)nc2)CC2(CC2)C1` (stereo not shown) [Example compound 1] had a melting point of 199 to 202 °C. Broadly, the Ki is the equilibrium dissociation constant of an inhibitor or competing ligand from its target. Read a low Ki as a stronger hold on the target. Take `NC1(c2ccc(-c3ccc4[nH]ncc4c3C3CC3)nc2)CC2(CC2)C1` [Example compound 2, 5-{5-(5-amino-spiro[2,3]hex-5-yl)pyridin-2-yl}}-4-cyclopropyl-1H-indazole Dihydrochloride]: in the series with cynomolgus monkeys, the “intraocular pressure-reducing activity (change from the initial intraocular pressure, FIG. 1)” value was “excellent intraocular pressure-reducing activity”. Besides, the inhibitory constant (Ki) at activated ROCK-II is 3.5 nM. For `NC1(c2ccc(-c3ccc4[nH]ncc4c3C3CC3)nc2)CC2(CC2)C1` (as salt: hydrochloride) [Example compound 2, 5-{5-(5-amino-spiro[2,3]hex-5-yl)pyridin-2-yl}}-4-cyclopropyl-1H-indazole Dihydrochloride], the melting point is > 300 °C (dec.).

The values are drawn from patent US8227480B2, “Indazole derivative having spiro ring structure in side chain” (Ube Industries, Ltd., priority 2006, dated 2012).
